Usually ED50 stands for the dose that gives a 50% effect, or the effect in half of the subjects.

One experiment concerns Rattus norvegicus. The experiment can be described thus: Fibrinolytic activity in ip dosed rat assessed as blood clot lysis for 4 hrs. In kind it is functional.
Conditions: not given
In the case of `COc1ccc(C(N)CCCCCCCC2NCCc3cc(OC)c(OC)cc32)cc1OC.Cl` (racemic; 31b), the 50% effective dose (ED50) is 0.5 mg/kg.

The same experiment, now with this note: Rattus norvegicus, Blood clot, ip, 4 h; read-out: ED50.
For the molecule `COc1cc2c(cc1OC)C(CCCCC1NCCc3cc(OC)c(OC)cc31)NCC2.Cl` (centres undefined), the ED50 came to 0.3 mg/kg.

Regarding `COc1ccc2c(c1)CCNC2CCCCC1NCCc2cc(OC)ccc21.Cl` (centres undefined), the ED50 came to 2 mg/kg.

As to `COc1ccc2c(c1)CCNC2CCCCCCCC1NCCc2cc(OC)ccc21.Cl` (centres undefined), the ED50 came to 6 mg/kg.

With `COc1ccc(C(N)CCCCC(N)c2ccc(OC)c(OC)c2)cc1OC.Cl` (centres undefined), the ED50 worked out at 0.4 mg/kg.

As to `COc1cc2c(cc1OC)C(CCCCC1NCCCc3cc(OC)c(OC)cc31)NCCC2.Cl` (centres undefined), the ED50 was determined as 0.7 mg/kg.

As for `COc1ccc2[nH]c3c(c2c1)CCNC3CCCCC1NCCc2c1[nH]c1ccc(OC)cc21.Cl` (centres undefined), the ED50 was determined as 6 mg/kg.

In the case of `COc1ccc2[nH]c3c(c2c1)CCNC3CCCCCCCC1NCCc2c1[nH]c1ccc(OC)cc21.Cl` (centres undefined), the ED50 was determined as 2 mg/kg.

In the case of `COc1ccc(C(N)CCCCC2NCCc3cc(OC)c(OC)cc32)cc1OC.Cl` (centres undefined), the 50% effective dose (ED50) is 0.9 mg/kg.

`COc1ccc(C(N)CCCCCCC2NCCc3cc(OC)c(OC)cc32)cc1OC.Cl` (centres undefined): the ED50 is 1 mg/kg.

As for `COc1ccc(CC(N)CCCCC(N)Cc2ccc(OC)c(OC)c2)cc1OC.Cl` (centres undefined), the ED50 is 15 mg/kg.

For `COc1cc(CCCCCCc2cc(OC)c(OC)cc2C(C)N)c(C(C)N)cc1OC.Cl` (centres undefined), the ED50 was determined as 4 mg/kg.

`COc1ccc(C(N)CCCCCCCC2NCCc3cc(OC)c(OC)cc32)cc1OC.Cl` (racemic; 31a): the ED50 stood at 0.7 mg/kg.

For the molecule `NCCc1c[nH]c2ccc(O)cc12` [SEROTONIN], the 50% effective dose (ED50) was 1 mg/kg.

Values taken from ChEMBL document CHEMBL3272236, “Synthesis and evaluation of 1,omega-diaryl-l,omega-alkanediamines related to the fibrinolytic bis(tetrahydroisoquinolines) and bis(benzylamines)” (1976).
